# In patent US6054282A, “Method for detecting biological interactions especially in receptor binding assays” (Zeneca Limited, priority 1993, dated 2000):
# Tested on: human calcitonin receptor
# Assay: Calcitonin receptor radial partition binding assay, displacement of (3-[125I]iodotyrosyl-22) salmon calcitonin
# Details: 1 micromolar salmon calcitonin; MEL cell membranes with cloned human calcitonin receptor; room temperature, 40 minutes; FIG. 3
# Procedure: The lysate was transferred to a glass/Teflon homogeniser and given 10 strokes to ensure cell disruption. The homogenate was centrifuged at 3,000 rpm (1100 g) for 10 minutes at 4 deg.C. […] The low-speed supernatant was removed, and the pellet re-suspended in 10 ml of homogenisation buffer and dispersed with 3×10 second treatments with the Polytron homogeniser, followed by low-speed centifugation as described above. The supernatants from both spins were combined. This was then centrifuged for 30 minutes at 33,000 rpm (100,000 g) at 4 deg C. in an L7 Ultracentrifuge (Beckman) using a Ti75 head. The pellet was re-suspended in 20 mM HEPES, pH 7.4, and re-centrifuged. This pellet was then re-suspended as before and treated with 10 strokes of the glass/Teflon homogeniser.
# Protein determination was by the […] method of the Pierce Chemical Co., using their recommended protocol and bovine serum albumin (BSA) as a standard. Membranes were diluted to a stock concentration of 0.08 mg/ml protein, and stored at -70 deg. C.
# To a 30×43 cm glass fibre filter mat (Tomtec RG) was added 4 microlitres of receptor preparation to 2,304 positions in a rectangular array. This was allowed to dry for 2 hours at room temperature. […]
# The mat was allowed to dry completely and was exposed to a storage phosphor screen (Molecular Dynamics) for 3 hours and analysed using a PhosphorImager SF (Molecular Dynamics).
substance,measurement,value
calcitonin [salmon calcitonin],"inhibition of binding of [125I] salmon calcitonin (central spot, PhosphorImager)",full inhibition of binding
